Drawing on BindingDB's records for doi:10.7270/Q2TX3CTT (Broad Institute, 2010), this text covers EC50 for 65 compounds.

Where a name gives a salt, the structure may show the parent alone.

Glycogen synthase kinase-3 beta, sequence (P49841 whole entry): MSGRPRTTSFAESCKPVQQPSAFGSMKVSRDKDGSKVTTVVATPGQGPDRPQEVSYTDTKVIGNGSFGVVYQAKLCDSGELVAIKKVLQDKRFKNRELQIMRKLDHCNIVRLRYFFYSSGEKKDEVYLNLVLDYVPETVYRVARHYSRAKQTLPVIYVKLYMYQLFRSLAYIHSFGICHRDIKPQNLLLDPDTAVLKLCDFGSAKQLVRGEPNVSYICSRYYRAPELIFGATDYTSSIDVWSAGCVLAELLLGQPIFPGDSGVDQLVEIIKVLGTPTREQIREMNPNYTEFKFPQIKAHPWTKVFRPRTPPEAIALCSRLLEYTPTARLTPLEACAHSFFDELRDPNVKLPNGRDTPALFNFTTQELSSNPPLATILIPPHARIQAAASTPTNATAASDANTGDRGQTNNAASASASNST

This assay addresses Glycogen synthase kinase-3 beta (Homo sapiens, UniProt P49841). Description: concentration-response blocking of human GSK3B – biochemical, luminescence, cell-free homogeneous, retest, dose response (AID 434954).
In the case of `Cc1ccc2sc(N(CCN(C)C)C(=O)c3ccc(S(=O)(=O)N4CC(C)OC(C)C4)cc3)nc2c1C` (stereo not given) [N-[2-(dimethylamino)ethyl]-N-(4,5-dimethyl-1,3-benzothiazol-2-yl)-4-(2,6-dimethylmorpholin-4-yl)sulfonyl-benzamide;hydrochloride], the EC50 (usually the concentration giving half of the maximal effect) is over 300 µM.

In turn, `Cc1nnc(SCC(=O)N2CCC(C(=O)Nc3nccs3)CC2)n1Cc1ccccc1` returned an EC50 of 36.6 µM. The value for `Fc1ccccc1CN=Nc1ncnc2nc[nH]c12` was 11.2 µM; that for `O=C(O)C1C2C=CC(O2)C1C(=O)NCc1ccc(Cl)cc1` (stereo not given) [3-{[(4-chlorobenzyl)amino]carbonyl}-7-oxabicyclo[2.2.1]hept-5-ene-2-carboxylic acid] was over 300 µM. The compound `CCOc1cc(C2Nc3ccccc3N=C3CC(C)(C)CC(=O)C32)ccc1O` (stereo not given) [6-(3-ethoxy-4-hydroxyphenyl)-9,9-dimethyl-6,8,10,11-tetrahydro-5H-benzo[b][1,4]benzodiazepin-7-one] yielded an EC50 of over 300 µM. Take `O=C(CCC1COc2ccccc2O1)NCC1COc2ccccc2O1` (stereo not given): the EC50 was over 300 µM. In turn, `COc1ccc(Nc2nc(NCC3CCCO3)nc(N)c2[N+](=O)[O-])cc1` (stereo not given) [N'-(4-Methoxy-phenyl)-5-nitro-N-(tetrahydro-furan-2-ylmethyl)-pyrimidine-2,4,6-triamine] had an EC50 of over 300 µM. In turn, `O=C(Nc1ccsc1C(=O)NC1CC1)c1ccccc1` [MLS000546913] yielded a 50% effective concentration (EC50) of 9.98 µM. The value for `FC(F)(F)c1ccc(CSc2nccn2-c2ccccc2)cc1` was over 300 µM; that for `Cc1ccc(C(=O)c2coc3ccc(O)c(Cl)c23)cc1` [(4-chloro-5-hydroxy-3-benzofuranyl)-(4-methylphenyl)methanone] was over 300 µM; that for `C=CCN1C(=O)C(Cc2ccc(Br)cc2)SC1=NN=Cc1ccco1` (stereo not given) was over 300 µM. The compound `c1ccc(CSc2ccc3nnc(-c4ccccn4)n3n2)cc1` had an EC50 of over 300 µM. As to `O=C(NC(=O)c1ccccc1)Nc1ccccn1` [N-(pyridin-2-ylcarbamoyl)benzamide], the EC50 was 51.2 µM. As for `COc1ccc(C2C(C(C)=O)C(=O)C(=O)N2c2nccs2)c(OC)c1` (stereo not given) [3-acetyl-2-(2,4-dimethoxyphenyl)-4-hydroxy-1-(1,3-thiazol-2-yl)-2H-pyrrol-5-one], the EC50 is over 300 µM.

The compound `COCC/N=C1\Sc2nc3c(C)cccc3cc2CN1Cc1ccco1` [SMR000122349] yielded an EC50 of over 300 µM. In turn, `COC(=O)CSc1ncnc2c1sc1nc(N3CCOCC3)c3c(c12)CCCC3` [MLS000535174] showed an EC50 of over 300 µM. The value for `Oc1cccc(Nc2nc(-c3ccccc3)nc3ccccc23)c1` was over 300 µM; that for `O=C(CN(Cc1ccccc1)C(=O)CCC(=O)Nc1ccccn1)NCc1ccc(F)cc1` was 58.8 µM.

Consider `O=[N+]([O-])c1ccccc1S(=O)(=O)Nc1ccc(S(=O)(=O)Nc2nccs2)cc1`, for which the EC50 was over 300 µM. With `Cc1ccc(C(=O)Nc2ncc([N+](=O)[O-])s2)cc1`, the EC50 was over 300 µM. The compound `CCOC(=O)c1cnc2ccc(OCC)cc2c1N1CCN(C)CC1` [MLS000047802] registered an EC50 of 49.5 µM.

Take `COc1ccc2nc(NC(=O)CCNC(=O)c3ccccc3Cl)sc2c1` [2-chloro-N-[3-[(6-methoxy-1,3-benzothiazol-2-yl)amino]-3-oxopropyl]benzamide]: the EC50 is over 300 µM. The value for `O=C1NC(c2ccncc2)Nc2sc3c(c21)CCCC3` (stereo not given) was over 300 µM.

Compound `COc1ccc(Nc2nc(NCCN3CCOCC3)nc(Nc3ccc(OC)cc3)n2)cc1` displayed an EC50 of over 300 µM. The value for `COc1ccc(Nc2nc(-c3ccccc3)c(C(=O)Nc3cccnc3)s2)cc1` [MLS001018742] was over 300 µM. On to `CC(C)(C)C(=O)c1cnc(Nc2ccccc2)s1` [1-(2-anilino-1,3-thiazol-5-yl)-2,2-dimethylpropan-1-one], for which the EC50 was over 300 µM. Consider `O=NCc1ccc(Oc2ccc(F)cc2)c([N+](=O)[O-])c1` [N-[[4-(4-fluorophenoxy)-3-nitrophenyl]methylidene]hydroxylamine], for which the EC50 worked out at 23 µM.

With `Nc1nc(NCC2CCCO2)nc(Nc2ccc(Cl)cc2)c1[N+](=O)[O-]` (stereo not given) [N'-(4-Chloro-phenyl)-5-nitro-N-(tetrahydro-furan-2-ylmethyl)-pyrimidine-2,4,6-triamine], the midpoint of the response, the EC50, lay at 2.29 µM.

In the case of `Cn1c(=S)n(CCC(=O)O)c2ccccc21` [SMR000273673], the EC50 is over 300 µM. The value for `c1ccc(CNCC2COc3ccccc3O2)cc1` (stereo not given) [Benzyl-(2,3-dihydro-benzo[1,4]dioxin-2-ylmethyl)-amine] was over 300 µM. In turn, `O=C1c2ccccc2NC(c2c[nH]nc2-c2ccccc2)N1O` (stereo not given) yielded an EC50 of over 300 µM.

With `Cc1sc2ncnc(N3CCCCC3C)c2c1C` (stereo not given), the EC50 is over 300 µM. The value for `COC(=O)COc1ccc2occ(C(C)=O)c2c1` was over 300 µM.

For the compound `NC(=O)c1c(NC(=O)CN2CCCC2)sc2c1CCCC2` [2-(2-Pyrrolidin-1-yl-acetylamino)-4,5,6,7-tetrahydro-benzo[b]thiophene-3-carboxylic acid amide], the EC50 is over 300 µM. As to `CCn1c(S)nnc1-c1ccc([N+](=O)[O-])cc1` [SMR000176027], the half-maximal effective concentration (EC50) was over 300 µM. In the case of `O=C(OCCN1CCCCC1)c1ccc(O)cc1` [4-hydroxybenzoic acid 2-(1-piperidinyl)ethyl ester], the EC50 is over 300 µM. The value for `Cc1c(C(=O)OCCOc2ccccc2)[nH]c2c1C(=O)CCC2` [MLS000090901] was 10.9 µM; that for `O=C(CSc1ccc2nnc(-c3ccc(F)cc3)n2n1)N1CCOCC1` [2-[[3-(4-fluorophenyl)-[1,2,4]triazolo[4,3-b]pyridazin-6-yl]sulfanyl]-1-morpholin-4-yl-ethanone] was over 300 µM; that for `Cc1cc(NC(=O)c2noc3c2CCc2ccccc2-3)n(-c2ccccc2)n1` [MLS000116423] was over 300 µM. `COc1ccccc1N1CCN(/N=C/c2ccc(Cl)c([N+](=O)[O-])c2)CC1` showed an EC50 of over 300 µM. As for `CCn1c(=O)c(C(=O)NNC(=O)c2ccccc2)c(O)c2ccccc21`, the EC50 was over 300 µM.

Consider `Cc1nn(-c2ccccn2)c2c1C(c1ccncc1)C1C(=O)CC(C)(C)CC1=N2` (stereo not given) [SMR000152057], for which the EC50 is over 300 µM.

For the compound `COc1ccc2c(c1)-c1c(ssc1=S)C(C)(C)N2S(=O)(=O)c1ccc(C)cc1` [8-methoxy-4,4-dimethyl-5-(4-methylphenyl)sulfonyl-[1,2]dithiolo[3,4-c]quinoline-1-thione], the EC50 is over 300 µM. Regarding `O=C(Cn1nnc(-c2ccccc2)n1)NN=Cc1ccc(-c2ccc(Cl)cc2)o1` [N'-{[5-(4-chlorophenyl)-2-furyl]methylene}-2-(5-phenyl-2H-tetrazol-2-yl)acetohydrazide], the EC50 is over 300 µM.

`COCCn1c(SCC(=O)Nc2ccc(Cl)c(S(=O)(=O)N(C)C)c2)nc2ccccc21` [MLS000536225] yielded an EC50 of over 300 µM.

For `Cc1c(NC(=O)C(C)n2cc([N+](=O)[O-])cn2)c(=O)n(-c2ccccc2)n1C` (stereo not given) [N-(1,5-dimethyl-3-oxo-2-phenylpyrazol-4-yl)-2-(4-nitropyrazol-1-yl)propanamide], the EC50 was over 300 µM. For `C[C@H]1CCCC(=O)CCCC=Cc2cc(O)cc(O)c2C(=O)O1` [(11S)-11-methyl-15,17-bis(oxidanyl)-12-oxabicyclo[12.4.0]octadeca-1(18),2,14,16-tetraene-7,13-dione], the EC50 came out at 5.45 µM. This counts as single-digit micromolar.

`CC(=O)Nc1ncc2c(n1)CC(c1ccco1)CC2=O` (stereo not given) [N-(7-Furan-2-yl-5-oxo-5,6,7,8-tetrahydro-quinazolin-2-yl)-acetamide] yielded an EC50 of over 300 µM.

`O=C(O)CCn1cc(C(=O)O)c(-c2ccccc2)n1` [1-(2-carboxyethyl)-3-phenyl-4-pyrazolecarboxylic acid] came in with an EC50 of over 300 µM.

In turn, `CCC(=NNC(=S)Nc1cccc(C)c1)c1ccccc1` registered a half-maximal effective concentration (EC50) of over 300 µM. Compound `O=C1N=C(Nc2ccc(O)cc2)SC1=Cc1ccco1` [SMR000298037] returned an EC50 of over 300 µM. The value for `COc1ccc(CNC(=O)CN(Cc2ccc(OC)cc2)C(=O)CCC(=O)Nc2nccs2)cc1` [MLS001222948] was 19.1 µM; that for `O=NCc1ccc(Oc2ccccc2Cl)c([N+](=O)[O-])c1` [N-[[4-(2-chlorophenoxy)-3-nitrophenyl]methylidene]hydroxylamine] was 12.8 µM; that for `CC(C)C(=O)NC(=S)Nc1ccc(S(=O)(=O)N2CCCC2)cc1` [SMR000231524] was over 300 µM. In turn, `CN(C)c1ccc(C=NNC(=O)c2nnn(-c3nonc3N)c2CN2CCCCCC2)cc1` [1-(4-amino-1,2,5-oxadiazol-3-yl)-5-(1-azepanylmethyl)-N-[[4-(dimethylamino)phenyl]methylideneamino]-4-triazolecarboxamide] returned an EC50 of over 300 µM. `O=c1[nH]c(=S)n(-c2ccccc2F)c(O)c1C=NCc1ccco1` [(5E)-1-(2-fluorophenyl)-5-[(furan-2-ylmethylamino)methylidene]-2-sulfanylidene-1,3-diazinane-4,6-dione] showed an EC50 of 80.2 µM. This lies in the double-digit micromolar range. On to `CCCCn1nc(NC(=O)CC(C)C)c2cc3cc(OC)ccc3nc21` [N-(1-butyl-6-methoxy-3-pyrazolo[3,4-b]quinolinyl)-3-methylbutanamide], for which the EC50 is over 300 µM. As for `CCN1C(=O)/C(=N\NC(=O)C(O)c2ccccc2)c2ccccc21` (stereo not given) [SMR000414657], the EC50 was found to be 32.4 µM. In other words, the double-digit micromolar range.

In turn, `O=NCc1ccc(SCc2ccccc2Cl)c([N+](=O)[O-])c1` came in with an EC50 of over 300 µM. Compound `Cc1nccc(-c2cccc(NC(=O)c3ccccc3Cl)c2)n1` [MLS000859188] showed an EC50 of over 300 µM. On to `COc1ccc(CC(=O)Nc2ncc([N+](=O)[O-])s2)cc1OC` [SMR000288398], for which it took 8.4 µM to reach a half-maximal effect (EC50).

In turn, `COc1cccc(-c2ccc3nnc(SCC(=O)Nc4ccc(NC(C)=O)cc4)n3n2)c1` [N-(4-acetamidophenyl)-2-[[6-(3-methoxyphenyl)-[1,2,4]triazolo[4,3-b]pyridazin-3-yl]sulfanyl]ethanamide] showed an EC50 of over 300 µM. Take `O=c1cc(-c2ccccc2Cl)oc2c(NS(=O)(=O)c3cccs3)ccc(O)c12` [MLS000518499]: the EC50 was over 300 µM.

`Clc1ccc(CN=Nc2ncnc3nc[nH]c23)cc1` [MLS000419189]: the midpoint of the response, the EC50, lay at 20.4 µM.

As to `O=C(CSCCc1ccccn1)Nc1ccc(Br)cn1`, the 50% effective concentration (EC50) was 17.7 µM.
